# Reference: PMC6306559 (Pharmacology Research & Perspectives, 2018)
# Read-outs that look alike come from different tables or passages of the source.
# Key:
# α1B‐AR #15 [1] = test: QAPB competition binding at purified thermostabilized receptor on paramagnetic beads; conditions: for QAPB displacement: 10 nmol/L QAPB, 2 hours, benzodiazepines up to 200 μmol/L
# WT α1A‐AR = target: T1, WT α1A‐AR (Homo sapiens, UniProt P35348); test: Intracellular Ca2+ mobilization in stably expressing COS‐7 cells; type: cell-based; conditions: for Effect on Ca2+ mobilization: 0 to 50 μmol/L, absence or presence of 10 nmol/L phenylephrine
# T1 construct: expressed in transfected cells
# T1 sequence (P35348 1-466): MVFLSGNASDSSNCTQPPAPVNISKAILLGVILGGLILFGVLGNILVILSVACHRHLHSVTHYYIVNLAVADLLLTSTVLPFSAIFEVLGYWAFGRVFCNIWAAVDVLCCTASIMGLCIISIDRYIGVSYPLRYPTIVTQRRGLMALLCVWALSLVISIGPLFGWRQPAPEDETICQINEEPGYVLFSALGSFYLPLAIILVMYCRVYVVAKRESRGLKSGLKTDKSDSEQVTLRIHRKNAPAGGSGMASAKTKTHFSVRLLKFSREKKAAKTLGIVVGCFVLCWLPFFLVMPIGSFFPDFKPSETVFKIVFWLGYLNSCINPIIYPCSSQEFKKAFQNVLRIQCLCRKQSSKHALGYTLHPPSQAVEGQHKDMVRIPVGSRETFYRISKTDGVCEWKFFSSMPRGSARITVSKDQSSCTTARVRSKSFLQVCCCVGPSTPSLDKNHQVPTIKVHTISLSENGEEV
# WT α1B‐AR [2] = target: T2, WT α1B‐AR (Homo sapiens, UniProt P35368); test: as above; type: cell-based; conditions: for Effect on Ca2+ mobilization: 0 to 50 μmol/L, absence or presence of 10 nmol/L phenylephrine
# T2 construct: COS‐7 cells stably expressing unmodified α1B‐AR; expressed in transfected cells
# T2 sequence (P35368 1-520): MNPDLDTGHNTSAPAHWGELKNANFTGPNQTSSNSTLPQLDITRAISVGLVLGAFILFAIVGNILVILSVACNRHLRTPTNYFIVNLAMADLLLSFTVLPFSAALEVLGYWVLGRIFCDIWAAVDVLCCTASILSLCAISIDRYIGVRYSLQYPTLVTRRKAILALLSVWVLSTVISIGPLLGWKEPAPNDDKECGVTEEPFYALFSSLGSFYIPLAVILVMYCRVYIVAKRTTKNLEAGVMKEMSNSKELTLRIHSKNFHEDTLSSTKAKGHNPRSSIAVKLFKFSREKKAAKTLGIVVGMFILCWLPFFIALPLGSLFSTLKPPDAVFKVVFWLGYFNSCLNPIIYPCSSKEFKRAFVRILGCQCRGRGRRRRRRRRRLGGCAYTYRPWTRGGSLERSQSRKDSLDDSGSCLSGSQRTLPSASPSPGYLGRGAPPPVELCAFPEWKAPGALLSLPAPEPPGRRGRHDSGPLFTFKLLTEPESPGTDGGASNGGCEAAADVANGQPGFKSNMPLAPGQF
# [3] = tested on: α1A‐AR expressing COS‐7 cells; test: Phenylephrine-induced CRE reporter assay; type: cell-based; conditions: for Cotreatment with diazepam, effect on phenylephrine CRE response / Modulation of phenylephrine CRE response by PDE inhibitor / Effect of inhibitor on diazepam modulation of phenylephrine‐stimulated CRE response: 0.1 μmol/L phenylephrine; for Modulation of phenylephrine CRE response by PDE inhibitor: IBMX 500 μmol/L, rolipram 10 μmol/L
# Method: (§1) cAMP response element (CRE) response assays were performed as previously described by transfecting WT α1A‐ and α1B‐AR stably expressing COS‐7 cells, parental COS‐7 cells or parental HEK293T cells, with a β‐galactosidase expression plasmid under the control of the CRE promoter.10 CRE reporter‐transfected cells were seeded into 96‐well culture plates for 24 hours before treatment with various compounds for 6 hours at 37°C 5% CO2. Media was aspirated, and the cells frozen at −80°C for at least 24 hours before measurement of cellular β‐galactosidase expression using chlorophenol red‐β‐D‐galactopyranoside. Ligands were made up in 0.5% FBS DMEM media. […] HEK293T cells transiently transfected with GPR68 and pCRE were stimulated with sodium bicarbonate‐free, low glucose DMEM, supplemented with 20 mmol/L HEPES and 0.5% FBS at pH 6.8, 7.0, 7.2, 7.4, and 7.8. The pH was adjusted at 37°C with NaOH. Cells were incubated for 6 hours at 37°C, in a room atmosphere incubator.
# Nuclear magnetic resonance (NMR) data were processed in Topspin 3.5 using squared cosine‐bells in both dimensions and zero‐filled once, prior to Fourier‐transformation. All other data was analyzed with Graphpad prism 7 (San Diego, CA, USA). All error bars are standard deviation (SD) from three independent experiments. Competition binding assays were performed in duplicate wells. Curves were fit with one site nonlinear regression. For whole cell QAPB binding, the mean QAPB fluorescence intensity (MFI) of at lease 5000 cells was measured, and plotted against QAPB concentration. Values reported represent the mean and SD of at least three K d values calculated from separate measurements. Ca^2+ mobilization data were performed in triplicate wells and normalized to the peak response elicited by 3 μmol/L ionomycin. CRE assay was conducted in triplicate, and data were normalized to the response elicited by the vehicle. Curves were fitted with three variable nonlinear regressions. For GPR68 assays, responses were normalized to CRE response at pH 6.8 (100%) and pH 7.8 (0%).
# [4] = tested on: α1B‐AR expressing COS‐7 cells; test: Phenylephrine-induced CRE reporter assay; type: cell-based
# [5] = tested on: untransfected human embryonic kidney 293T cells; test: Forskolin-induced CRE reporter assay; type: cell-based; conditions: 50 μmol/L diazepam
# [6] = tested on: untransfected COS‐7 cells; test: Phenylephrine-induced CRE reporter assay; type: cell-based; conditions: 50 μmol/L diazepam; cells do not express α1A‐AR and α1B‐AR
# Method: as §1
# GPR68 = target: T3, GPR68 (Homo sapiens, UniProt Q15743); test: GPR68 pH-stimulated CRE reporter assay; type: cell-based; conditions: pH 7.2; HEK293T cells transfected with GPR68
# T3 construct: expressed in transfected cells; host or cells: HEK293T (transient)
# T3 sequence (Q15743 whole entry, species assumed): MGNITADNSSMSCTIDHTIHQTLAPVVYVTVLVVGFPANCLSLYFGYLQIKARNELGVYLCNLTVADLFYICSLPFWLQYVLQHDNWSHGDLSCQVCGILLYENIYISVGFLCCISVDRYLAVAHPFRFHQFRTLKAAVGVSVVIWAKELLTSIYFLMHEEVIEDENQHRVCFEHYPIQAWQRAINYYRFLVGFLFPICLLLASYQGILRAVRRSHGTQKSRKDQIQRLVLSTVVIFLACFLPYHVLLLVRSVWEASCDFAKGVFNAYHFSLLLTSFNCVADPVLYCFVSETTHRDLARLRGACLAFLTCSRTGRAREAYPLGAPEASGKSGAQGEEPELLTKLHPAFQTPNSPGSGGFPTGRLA
# Method: as §1, with “Cells were incubated for 6 hours at 37°C, in a room atmosphere incubator.” left out
# Nuclear magnetic resonance (NMR) data were processed in Topspin 3.5 using squared cosine‐bells in both dimensions and zero‐filled once, prior to Fourier‐transformation. All other data was analyzed with Graphpad prism 7 (San Diego, CA, USA). […] For whole cell QAPB binding, the mean QAPB fluorescence intensity (MFI) of at lease 5000 cells was measured, and plotted against QAPB concentration. Values reported represent the mean and SD of at least three K d values calculated from separate measurements. […]
# [7] = tested on: untransfected HEK293T cells; test: Isoprenaline-induced CRE reporter assay; type: cell-based, human; conditions: 50 μmol/L diazepam
# α1A‐AR A4 [8] = conditions: for QAPB displacement: 10 nmol/L QAPB, 2 hours, benzodiazepines up to 200 μmol/L
# guinea pig PDE‐4 = conditions: cited from earlier work; for Potency relative to diazepam: benzodiazepines unsubstituted at N‐1
# [9] = tested on: purified guinea pig PDE‐4; conditions: cited from earlier work
# [10] = tested on: α1A‐AR expressing COS‐7 cells; type: cell-based, human; conditions: 10 μmol/L forskolin; for Modulation of forskolin CRE response by PDE inhibitor: IBMX 500 μmol/L, rolipram 10 μmol/L
# WT α1B‐AR [11] = target: T2, WT α1B‐AR; test: Whole cell QAPB saturation binding by flow cytometry; conditions: COS‐7 cells, read-out: K d of QAPB
# Method: Fifty microliter of the cell suspension was added to each well of a V‐bottom 96‐well plate (Sarstead, Nümbrecht, Germany). […] To determine nonspecific binding, cells were exposed to QAPB at the same concentrations as above, but in the presence of 100 μmol/L phentolamine. The cells were incubated with ligands for 1 hour at 20°C prior to detection of bound QAPB with flow cytometry using CytoFLEX LX flow cytometer (Beckman Coulter, Brea, CA, USA).
# α1A‐AR A4 [12] = conditions: previously reported; read-out: K d of QAPB; cited from earlier work
# α1B‐AR #15 [13] = conditions: previously reported; read-out: K d of QAPB; cited from earlier work
# α1A‐AR A4 [14] = conditions: 500 μmol/L ligand, 5 μmol/L receptor in DDM, with and without 10 μmol/L prazosin; controls DDM alone and enNTS1
# [15] = 2.5 mmol/L phenylephrine, increasing diazepam
# [16] = not in untransfected COS‐7 cells
molecule,measurement,setting,value
CN1C(=O)CN=C(c2ccccc2)c2cc(Cl)ccc21 [diazepam],QAPB displacement,α1B‐AR #15 [1],neither diazepam nor lorazepam displaced QAPB at either receptor
same,Cooperativity with phenylephrine in QAPB displacement,α1B‐AR #15 [1]; [15],No cooperativity between diazepam and phenylephrine was observed
same,Effect on Ca2+ mobilization,WT α1A‐AR,had no effect
same,Effect on Ca2+ mobilization,WT α1B‐AR [2],had no effect
same,Modulation of phenylephrine potency in CRE assay,[3]; 50 μmol/L diazepam,positively modulated the potency of phenylephrine
same,EC50,"[3]; COS-7, 200 nmol/L phenylephrine, mean ± SD from three experiments, read-out: EC50 for modulating the phenylephrine CRE response",6.5 ± 4.8 µM
same,CRE response in the absence of phenylephrine,[3]; diazepam alone,did not induce a CRE response
same,EC50,"[4]; COS-7, 800 nmol/L phenylephrine, mean ± SD from three experiments, read-out: EC50 for modulating the phenylephrine CRE response",7.8 ± 1.9 µM
same,CRE response in the absence of phenylephrine,[4]; diazepam alone,did not induce a CRE response
same,Modulation of forskolin potency in CRE assay,[5],positively modulated the potency
same,Modulation of phenylephrine‐induced CRE response,[6],positively modulated
same,Modulation of GPR68 CRE response,GPR68,did not significantly increase the CRE response of GPR68
same,Modulation of isoprenaline CRE efficacy,[7],significantly increased the CRE efficacy of isoprenaline
same,QAPB displacement,α1A‐AR A4 [8],neither diazepam nor lorazepam displaced QAPB at either receptor
same,Cooperativity with phenylephrine in QAPB displacement,α1A‐AR A4 [8]; [15],No cooperativity between diazepam and phenylephrine was observed
same,IC50,guinea pig PDE‐4,9 µM
same,Competition with 3H‐rolipram,[9],competes with ^3H‐rolipram
CC(C)Cn1c(=O)n(C)c(=O)c2[nH]cnc21 [IBMX],"Cotreatment with diazepam, effect on phenylephrine CRE response",[3]; 50 μmol/L diazepam,had no additional positive modulatory effect
same,Modulation of phenylephrine CRE response by PDE inhibitor,[3],positively modulated the CRE response of phenylephrine to a similar level as diazepam
same,"Cotreatment with diazepam, effect on forskolin CRE response",[10]; 50 μmol/L diazepam,no additive effect was observed
same,Modulation of forskolin CRE response by PDE inhibitor,[10],positively modulated the CRE response of forskolin
NCCOB(c1ccccc1)c1ccccc1 [2‐APB],Effect of inhibitor on diazepam modulation of phenylephrine‐stimulated CRE response,[3]; 50 μmol/L diazepam,had no significant effect
same,Effect of inhibitor on diazepam modulation of forskolin‐stimulated CRE response,[10]; 50 μmol/L diazepam,had no significant effect
COc1ccc(S(=O)(=O)N(CCO)c2ccccc2CN(C)C/C=C/c2ccc(Cl)cc2)cc1 [KN‐93],Effect of inhibitor on diazepam modulation of phenylephrine‐stimulated CRE response,[3]; 50 μmol/L diazepam,had no significant effect
same,Effect of inhibitor on diazepam modulation of forskolin‐stimulated CRE response,[10]; 50 μmol/L diazepam,had no significant effect
Cl.NCCCCCCNS(=O)(=O)c1cccc2c(Cl)cccc12 [W‐7 hydrochloride],Effect of inhibitor on diazepam modulation of phenylephrine‐stimulated CRE response,[3]; 50 μmol/L diazepam,significantly reduced both the phenylephrine response and the diazepam modulation of the CRE response
same,Effect of inhibitor on diazepam modulation of forskolin‐stimulated CRE response,[10]; 50 μmol/L diazepam,had no significant effect on forskolin stimulation
COC(=O)C1=C(C)NC(C)=C([N+](=O)[O-])[C@@H]1c1ccccc1C(F)(F)F [(R)‐(+)‐Bay K 8644],Effect of inhibitor on diazepam modulation of phenylephrine‐stimulated CRE response,[3]; 50 μmol/L diazepam,had no significant effect
same,Effect of inhibitor on diazepam modulation of forskolin‐stimulated CRE response,[10]; 50 μmol/L diazepam,had no significant effect
COC(=O)C1=C(C)NC(C)=C(C(=O)OC2CCCN(Cc3ccccc3)C2)C1c1cccc([N+](=O)[O-])c1 (stereo not shown) [benidipine],Effect of inhibitor on diazepam modulation of phenylephrine‐stimulated CRE response,[3]; 50 μmol/L diazepam,significantly reduced both the phenylephrine response and the diazepam modulation of the CRE response
same,Effect of inhibitor on diazepam modulation of forskolin‐stimulated CRE response,[10]; 50 μmol/L diazepam,had no effect
O=C1CN=C(c2ccccc2Cl)c2cc([N+](=O)[O-])ccc2N1 [clonazepam],Potency relative to diazepam,guinea pig PDE‐4,less potent than diazepam
CN1CCc2cc3c(cc2[C@H]1[C@@H]1OC(=O)c2c1ccc1c2OCO1)OCO3 [bicuculline],Effect of inhibitor on diazepam modulation of phenylephrine‐stimulated CRE response,[3]; 50 μmol/L diazepam,had no effect
same,Effect of inhibitor on diazepam modulation of forskolin‐stimulated CRE response,[10]; 50 μmol/L diazepam,had no effect
COc1ccc(C2CNC(=O)C2)cc1OC1CCCC1 (stereo not shown) [rolipram],"Cotreatment with diazepam, effect on phenylephrine CRE response",[3]; 50 μmol/L diazepam,had no additional positive modulatory effect
same,Modulation of phenylephrine CRE response by PDE inhibitor,[3],positively modulated the CRE response of phenylephrine to a similar level as diazepam
same,"Cotreatment with diazepam versus rolipram alone, forskolin CRE response",[10]; 50 μmol/L diazepam,significantly decreased
same,"Cotreatment with diazepam, effect on forskolin CRE response",[10]; 50 μmol/L diazepam,no additive effect was observed
same,Modulation of forskolin CRE response by PDE inhibitor,[10],positively modulated the CRE response of forskolin
CNC[C@H](O)c1cccc(O)c1 [phenylephrine],QAPB displacement,α1B‐AR #15 [1],displaced QAPB at both receptor subtypes
same,Agonist stimulation of calcium mobilization,WT α1A‐AR; [16],stimulated calcium mobilization
same,Agonist stimulation of calcium mobilization,WT α1B‐AR [2]; [16],stimulated calcium mobilization
same,QAPB displacement,α1A‐AR A4 [8],displaced QAPB at both receptor subtypes
O=C1CN=C(c2ccccc2)c2cc([N+](=O)[O-])ccc2N1 [nitrazepam],Potency relative to diazepam,guinea pig PDE‐4,less potent than diazepam
quinazoline piperazine bodipy [QAPB],Kd,WT α1B‐AR [11]; absence of diazepam,0.012 ± 0.003 µM
same,Kd,WT α1B‐AR [11]; presence of 50 μmol/L diazepam,0.02 ± 0.013 µM
same,Kd,α1A‐AR A4 [12],0.0116 µM
same,Kd,α1B‐AR #15 [13],0.0085 µM
O=C1Nc2ccc(Cl)cc2C(c2ccccc2Cl)=NC1O (stereo not shown) [lorazepam],QAPB displacement,α1B‐AR #15 [1],neither diazepam nor lorazepam displaced QAPB at either receptor
same,Effect on Ca2+ mobilization,WT α1A‐AR,had no effect
same,Effect on Ca2+ mobilization,WT α1B‐AR [2],had no effect
same,Modulation of GPR68 CRE response,GPR68,positively modulated the CRE response
same,QAPB displacement,α1A‐AR A4 [8],neither diazepam nor lorazepam displaced QAPB at either receptor
same,"STD NMR signals, interpretation",α1A‐AR A4 [14],nonspecific interactions with detergent micelles
same,Potency relative to diazepam,guinea pig PDE‐4,less potent than diazepam
